The values below are quoted from earlier work in patent publication US7442701B2, “Amino-heterocycles as VR-1 antagonists for treating pain” (Merck Sharp & Dohme Ltd., priority 2002, dated 2008).

In the data set the target is VR1 (Rattus norvegicus, UniProt O35433). Conditions: Wahl et al., Mol. Pharmacol., 59:9, 2001.
Sequence of VR1 (O35433 whole entry): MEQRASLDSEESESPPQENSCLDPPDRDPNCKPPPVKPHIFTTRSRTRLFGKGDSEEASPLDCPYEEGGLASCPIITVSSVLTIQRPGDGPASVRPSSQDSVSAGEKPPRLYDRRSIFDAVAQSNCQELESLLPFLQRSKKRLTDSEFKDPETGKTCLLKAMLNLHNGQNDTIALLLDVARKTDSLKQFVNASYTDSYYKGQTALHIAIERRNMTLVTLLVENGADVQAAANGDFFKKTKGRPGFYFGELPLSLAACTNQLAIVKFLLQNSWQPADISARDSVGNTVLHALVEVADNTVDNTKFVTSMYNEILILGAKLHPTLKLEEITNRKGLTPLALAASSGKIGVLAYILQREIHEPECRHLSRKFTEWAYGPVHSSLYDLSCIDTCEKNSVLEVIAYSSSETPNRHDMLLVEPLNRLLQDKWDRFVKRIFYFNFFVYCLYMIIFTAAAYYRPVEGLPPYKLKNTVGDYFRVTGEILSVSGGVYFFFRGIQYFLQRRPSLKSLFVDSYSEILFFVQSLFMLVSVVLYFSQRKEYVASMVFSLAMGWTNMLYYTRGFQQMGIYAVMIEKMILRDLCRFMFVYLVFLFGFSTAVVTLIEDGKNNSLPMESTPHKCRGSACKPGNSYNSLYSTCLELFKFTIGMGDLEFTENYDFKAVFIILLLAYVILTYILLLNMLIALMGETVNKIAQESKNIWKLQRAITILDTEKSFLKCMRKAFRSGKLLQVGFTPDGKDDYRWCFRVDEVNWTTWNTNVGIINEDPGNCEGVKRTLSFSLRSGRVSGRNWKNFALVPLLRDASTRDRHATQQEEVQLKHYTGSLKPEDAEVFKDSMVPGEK

As for `C=C(C)[C@]12C[C@@H](C)[C@@]34O[C@](Cc5ccccc5)(O[C@@H]1[C@@H]3C=C(COC(=O)Cc1cc(I)c(O)c(OC)c1)C[C@]1(O)C(=O)C(C)=C[C@@H]41)O2` [Iodo-resiniferatoxin], the “antagonist of VR1” value is listed as “nanomolar antagonist”.
